# Key:
# [1] = test system: transformed human keratinocyte cell line (FEP 1811); assay: Clonogenic survival cell culture assay for radioprotective activity (12 Gy 137Cs gamma irradiation); format: cell-based; settings: 12 Gy; for DMF10 (dose modification factor at a concentration of 10 microM of radioprotector): 10 microM radioprotector; for DMFm (dose modification factor at maximum protection): DMF=Dp/Dc at survival level Sm; for PF (protection factor = Sm/So): survival at maximum protection vs irradiation only
# Method in brief: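 Survival after irradiation gave protection factor PF = Sm/So (maximum-protection survival over irradiation-only survival). DMF = Dp/Dc is the ratio of doses giving survival Sm with and without radioprotector. DMF10 uses survival at 10 microM radioprotector in place of Sm.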
# [2] = test system: oral mucosa of mouse tongue; assay: Topical radioprotection of the oral mucosa of mouse tongue (mucosal ulceration endpoint); format: in vivo, mice of the inbred C3H/Neu strain
# Method: Mice of the inbred C3H/Neu strain were sourced from a breeding colony at the Medical Faculty Carl Gustav Cams, Dresden, Germany. The animals were bred and housed under specified pathogen-free conditions. Housing was under controlled conditions of humidity (30-50%) and temperature (21° C.-24° C.). An automated light programme regulated a 12/12-hour light/dark rhythm with lights on from 6 am to 6 pm. The mice were kept in size 3 Macrolon cages, maximum of 10 per cage, on sawdust bedding. Standard mouse diet (Altromin 1326, Altrogge) and filtered city tap water from standard perspex drinking bottles were provided ad libitum.
# A 3 mm×3 mm field at the middle of the lower surface of the mouse tongue was irradiated with 25 kV x-rays from a Darpac 150-MC device (Forward Raytech Ltd, Swinburne, UK) operated with a tube current of 20 milliamps yielding a dose rate of 3.78 Gy per minute and a focus-skin distance of 15 cm. Anaesthetised mice (sodium pentabarbitone; 60 mg per kg) were placed in a supine position in the central cylindrical hole (diameter 25 mm) of a pre-warmed aluminium block (approximately 35° C.). The tongue was guided through a hole (diameter 3 mm) in roof of the block by use of forceps, and the upper surface of the tongue was fixed to the outer surface of the block with double-sided adhesive tape. The head was supported by a polystyrene wedge to avoid traction of the base of the tongue and consequent hypoxia. The collimator was a 1 mm thick aluminium plate with a 3×3 mm^2 window positioned centrally over the lower surface of the tongue. Groups of 10 mice, were irradiated with 5 different doses in the range of 10-20 Gy.
# One hour prior to irradiation, 10 microlitres of formulation was applied to the lower surface of the tongue of anaesthetised mice using a displacement micropipette. Thirty minutes later, a second 10 microlitre aliquot of the formulation was applied and the mice irradiated thirty minutes later.
# Stock solutions of the appropriate drug in propylene glycol or water were diluted with an aqueous solution of Poloxamer 407 gel (BASF Lutrol F 127) and/or a solution of hydroxypropyl cellulose (approx average MW 80,000; Aldrich cat no 435007) in propylene glycol and with water and/or propylene glycol, producing each of two formulations: • Formulation 1—gel, which contained 10 or 30 mM drug in 20% Poloxamer 407 and 1% hydroxylpropyl cellulose in 30% propylene glycol in water, and • Formulation 2—Liquid, which contained 10, 30 or 60 mM drug in propylene glycol […] of 2% hydroxypropyl cellulose. Scoring and Data Analysis
# At various times after irradiation, the lower surface of the tongue of anaesthetised mice was examined daily. The quantal endpoint used was mucosal ulceration, corresponding to confluent mucositis RTOG/EORTC grade 3. The data plotted in the example figures is the percentage of a group of 10 mice in which the endpoint of mucosal ulceration was scored for at least 2 consecutive days. Radiation dose effect curves were generated with a single parameter sigmoidal relationship (logistic function
# [formula] using the Prism 5.0 curve-fitting programme to generate the ED50 value, which corresponds to the interpolated radiation dose at which 50% of the mice in the group reached the mucosal ulceration endpoint.
# [3] = 10 mM drug in Formulation 1, topical to tongue
# [4] = 10 mM drug in Formulation 1 vs vehicle
# [5] = 30 mM drug in Formulation 2, topical to tongue
# [6] = 30 mM drug in Formulation 2 vs vehicle
Structure (SMILES),DMF10 (dose modification factor at a concentration of 10 microM of radioprotector) [1],DMFm (dose modification factor at maximum protection) [1],PF (protection factor = Sm/So) [1],"ED50 (radiation dose at which 50% of the mice reached mucosal ulceration) [2, 3] [Gy]","dose reduction factor [2, 4]","ED50 (radiation dose at which 50% of the mice reached mucosal ulceration) [2, 5] [Gy]","dose reduction factor [2, 6]","ED50 (radiation dose at which 50% of the mice reached mucosal ulceration) ([2]; 60 mM drug in Formulation 3, topical to tongue) [Gy]",dose reduction factor ([2]; 60 mM drug in Formulation 3 vs blank formulation)
"CN1CCN(c2ccc3nc(-c4ccc5nc(-c6ccccn6)[nH]c5c4)[nH]c3c2)CC1 [Example 2, 2-(5′-(5″-(4′″-Methylpiperazin-1′″-yl)benzimidazol-2″-yl)benzimidazol-2′-yl)pyridine]",1.93,2.10,18.2,14.4,1.20,,,,
"Cc1ccc(-c2nc3ccc(-c4nc5ccc(N6CCN(C)CC6)cc5[nH]4)cc3[nH]2)nc1 [Example 6, 5-Methyl-2-(5′-(5″-(4′″-methylpiperazin-1′″-yl)benzimidazol-2″-yl)benzimidazol-2′-yl)pyridine]",2.43,2.52,26.2,,,14.6,1.13,,
"c1ccc(-c2nc3ccc(-c4nc5ccc(N6CCOCC6)cc5[nH]4)cc3[nH]2)nc1 [Example 19, 2-(5′-(5″-Morpholinobenzimidazol-2″-yl)benzimidazol-2′-yl)pyridine]",1.66,2.26,69.6,14.3,1.19,15.2,1.18,,
"OC1CCN(c2ccc3nc(-c4ccc5nc(-c6cc7ccccc7cn6)[nH]c5c4)[nH]c3c2)CC1 [Example 23, 3-(5′-(5″-(4′″-Hydroxypiperidin-1′″-yl)benzimidazol-2″-yl)benzimidazol-2′-yl)isoquinoline]",2.13,2.26,36.5,,,,,14.6,1.13

# Reference: patent publication USRE46943E1, “Radioprotector compounds and methods” (PETER MACCALLUM CANCER INSTITUTE, priority 2010, dated 2018)
